Broadly, the inhibition is the percentage by which the read-out fell short of the control.

Among the data in US4213999A, “Inhibition of lipogenesis” (Shell Oil Company, priority 1979, dated 1980) are inhibition values, retold here.

Each structure is given as a SMILES string.

The subject of this assay is lipogenesis in swine adipose tissue. Kind of assay: Inhibition of lipogenesis (lipid synthesis from glucose-U^14 C) in swine adipose tissue slices. The class given is cell-based. The following applies: Sus scrofa, 100 micrograms per milliliter of incubation mixture, 37° C., 2 hours, 300 microunits of insulin, 5% DMSO, triplicate, read-out: Percent Inhibition of lipogenesis (lipid synthesis) compared to control tests. From the text:
The manner in which they cause this effect is not known with certainty; it is believed that they interfere with the synthesis of fatty acids in the tissues. Their effectiveness for this purpose has been ascertained by immersing samples of swine adipose tissue in a liquid medium containing radioactive glucose and the test chemical for a period of time, then isolating the lipid from the treated tissue and determining the uptake of the radioactive carbon by means of scintillation counting techniques. These tests were conducted in swine adipose tissue because in swine, the primary site of lipogenesis--i.e., fatty acid synthesis--appears to be adipose tissue.
Described in more detail, the tests were conducted according to the following general procedure:
150 milligrams of slices of swine adipose tissue were incubated at 37° C. for 2 hours with shaking in 3 milliliters of Krebs-Ringer bicarbonate solution containing one-half of the normal calcium ion concentration, 60 micromoles of glucose, 0.5 micro-Curie of glucose-U^14 C, and 300 microunits of insulin, and 5% dimethyl sulfoxide (DMSO). The test compound was added as a solution or suspension in DMSO and was present as a concentration of 100 micrograms per milliliter of incubation mixture.
The incubation was terminated by addition of 0.25 milliliter of 1 N sulfuric acid. The resulting mixture was extracted with a total of 25 milliliters of chloroform:methanol (2:1, v/v). The extracts were washed according to Folch et al. (J. Biol. Chem., 226, 497-509, (1957)), air dried, and counted in a liquid scintillation counter with 15 milliliters of counting fluid (two parts toluene containing 0.4% w/v New England Nuclear Omnifluor: 1 part Triton X-100). The tests were conducted in triplicate and were accompanied by control tests in which all ingredients,proportions and conditions were the same except that no test compound was included. From the data obtained were calculated the percent inhibition of lipid synthesis by the test compound. The data obtained are reported as the percent inhibition of lipogenesis compared to the results obtained in the control tests wherein only the test compound was omitted.
`CCOC(=O)c1cc2cc(Cc3ccccc3)ccc2o1` [Compound 1, Ethyl 5-benzylbenzofuran-2-carboxylate]: the inhibition at 100 µg/mL is 45%.
Then `CCCCCCOc1ccc2oc(C(=O)OCC)cc2c1` [Compound 2], with 23%; and `CCOC(=O)c1cc2cc(C(=O)c3ccccc3)ccc2o1` [Compound 3], with 47%.
Then `CCOC(=O)c1cc2c(Oc3ccccc3)cccc2o1` [Compound 4, Ethyl 4-phenoxybenzofuran-2-carboxylate], with 28%.
The same measure for `CCOC(=O)c1cc2cc(-c3ccc(C(C)=O)cc3)ccc2o1` [Compound 5, Ethyl 5-(4-acetylphenyl)benzofuran-2-carboxylate]: 24%.
As for `CCOC(=O)c1cc2cc(-c3ccc(OC(C)=O)cc3)ccc2o1` [Compound 6, Ethyl 5-(4-acetyloxyphenyl)benzofuran-2-carboxylate], the inhibition at 100 µg/mL turned out to be 56%.
Then `CCOC(=O)c1cc2cc(-c3ccc(C(C)O)cc3)ccc2o1` (stereo not drawn) [Compound 7, Ethyl 5-(4-(1-hydroxyethyl)phenyl)benzofuran-2-carboxylate], with 71%; and `CCOC(=O)c1cc2cc(-c3ccc(NC(C)=O)cc3)ccc2o1` [Compound 8], with 52%.
`CCOC(=O)c1cc2cc(-c3ccc(N)cc3)ccc2o1` [Compound 9, Ethyl 5-(4-aminophenyl)benzofuran-2-carboxylate]: the inhibition at 100 µg/mL came to 45%.
The same measure for `CCOC(=O)C1Cc2cc(-c3ccccc3)ccc2O1` (stereo not drawn) [Compound 10, Ethyl 2,3-dihydro-5-phenylbenzofuran-2-carboxylate]: 21%; for `CCOC(=O)C1Cc2cc(Cc3ccccc3)ccc2O1` (stereo not drawn) [Compound 11]: 40%; for `C=CCOC(=O)C1Cc2cc(Cc3ccccc3)ccc2O1` (stereo not drawn) [Compound 12]: 36%.
As to `CCOC(=O)C1Cc2c(Oc3ccccc3)cccc2O1` (stereo not drawn) [Compound 13], the inhibition at 100 µg/mL amounted to 20%.
The same measure for `COC(=O)C1Cc2cc(-c3ccc(C(C)O)cc3)ccc2O1` (stereo not drawn) [Compound 14]: 85%; for `CCOC(=O)C1Cc2cc(-c3ccc(NC(C)=O)cc3)ccc2O1` (stereo not drawn) [Compound 15]: 88%; for `CCOC(=O)C1Cc2cc(C3CCCCC3)ccc2O1` (stereo not drawn) [Compound 16]: 21%.
The same measure for `CCOC(=O)C1Cc2ccc(Oc3ccccc3)cc2O1` (stereo not drawn) [Compound 17]: 29%; for `CCOC(=O)C1Cc2cc(-c3ccc(Cl)cc3)ccc2O1` (stereo not drawn) [Compound 18, Ethyl 2,3-dihydro-5-(4-chlorophenyl)benzofuran-2-carboxylate]: 28%.
